Reference: paper PMC8119466, “A screen of FDA-approved drugs identifies inhibitors of protein tyrosine phosphatase 4A3 (PTP4A3 or PRL-3)” (Scientific Reports, 2021)
Structures can show the parent of a compound that is named as a salt. Where two headings read alike, the source gives them in different places.

Experiments:
Assay type in all cases: biochemical
recombinant PRL-1 = target: T1, recombinant PRL-1 (Homo sapiens, UniProt Q93096); assay: In vitro phosphatase assay (DiFMUP hydrolysis), PRL-1; also: test concentration or dose not given here
T1 construct: 6xHis (N, cleaved yes); made in house; host or cells: E. coli One Shot BL21 Star
T1 sequence (Q93096 1-173): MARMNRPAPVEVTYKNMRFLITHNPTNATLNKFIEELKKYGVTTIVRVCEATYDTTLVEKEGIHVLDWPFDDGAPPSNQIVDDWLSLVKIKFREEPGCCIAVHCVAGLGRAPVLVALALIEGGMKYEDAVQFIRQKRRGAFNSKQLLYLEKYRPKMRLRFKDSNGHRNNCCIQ

recombinant PRL-2 = target: T2, recombinant PRL-2 (Homo sapiens, UniProt Q12974); assay: In vitro phosphatase assay (DiFMUP hydrolysis), PRL-2;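 also: PRL-2 activity read as DiFMUP hydrolysis after 20 min at room temperature with drug, enzyme first pre-reduced at 4 °C for 20 min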
T2 construct: 6xHis (N, cleaved yes); made in house; host or cells: E. coli One Shot BL21 Star
T2 sequence (Q12974 1-167): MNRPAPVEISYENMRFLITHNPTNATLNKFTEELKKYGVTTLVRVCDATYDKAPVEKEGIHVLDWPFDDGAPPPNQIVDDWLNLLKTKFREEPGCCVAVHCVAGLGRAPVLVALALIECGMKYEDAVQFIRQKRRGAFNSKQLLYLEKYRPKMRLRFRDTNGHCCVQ

recombinant PRL-3 = target: T3, recombinant PRL-3 (Homo sapiens, UniProt O75365); assay: In vitro phosphatase assay (DiFMUP hydrolysis), PRL-3; also: test concentration or dose not given here
T3 construct: 6xHis (N, cleaved yes); made in house; host or cells: E. coli One Shot BL21 Star
T3 sequence (O75365 whole entry): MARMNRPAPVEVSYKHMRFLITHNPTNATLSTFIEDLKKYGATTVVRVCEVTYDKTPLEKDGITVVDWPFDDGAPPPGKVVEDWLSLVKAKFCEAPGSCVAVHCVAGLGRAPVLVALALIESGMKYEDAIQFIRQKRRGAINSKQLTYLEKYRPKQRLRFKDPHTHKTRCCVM

[1] = FDA-approved drug screen, compared to DMSO

Row | SMILES | % Phosphatase Activity (compared to DMSO) PRL-1 (recombinant PRL-1; [1]) [%] | % Phosphatase Activity (compared to DMSO) PRL-2 (recombinant PRL-2; [1]) [%] | % Phosphatase Activity (compared to DMSO) PRL-3 (recombinant PRL-3; [1]) [%] | % Phosphatase Activity (compared to DMSO) PRL-1 (recombinant PRL-1) [%] | % Phosphatase Activity (compared to DMSO) PRL-2 (recombinant PRL-2) [%] | % Phosphatase Activity (compared to DMSO) PRL-3 (recombinant PRL-3) [%]
1 | C#C[C@]1(O)CC[C@H]2[C@@H]3CCC4=CC(=O)CC[C@@H]4[C@H]3C(=C)C[C@@]21CC [Etonogestrel] | 90 | 85 | 80 |  |  | 
2 | COc1cc([C@@H]2c3cc4c(cc3[C@@H](O[C@@H]3O[C@@H]5CO[C@@H](C)O[C@H]5[C@H](O)[C@H]3O)[C@H]3COC(=O)[C@H]23)OCO4)cc(OC)c1O [Etoposide] | 90 | 98 | 70 |  |  | 
3 | Cc1ccc(-c2ncc(Cl)cc2-c2ccc(S(C)(=O)=O)cc2)cn1 [Etoricoxib] | 93 | 102 | 91 |  |  | 
4 | Cc1cc(C#N)cc(C)c1Oc1nc(Nc2ccc(C#N)cc2)nc(N)c1Br [Etravirine (TMC125)] | 112 | 133 | 94 |  |  | 
5 | Cc1cc(C)c2c(c1)[C@@H](N(Cc1cc(C(F)(F)F)cc(C(F)(F)F)c1)c1nnn(C)n1)CCCN2C[C@H]1CC[C@H](C(=O)O)CC1 [Evacetrapib (LY2484595)] | 84 | 86 | 84 |  |  | 
6 | CO[C@H]1C[C@@H]2CC[C@@H](C)[C@@](O)(O2)C(=O)C(=O)N2CCCC[C@H]2C(=O)O[C@H]([C@H](C)C[C@@H]2CC[C@@H](OCCO)[C@H](OC)C2)CC(=O)[C@H](C)/C=C(\C)[C@@H](O)[C@@H](OC)C(=O)[C@H](C)C[C@H](C)/C=C/C=C/C=C/1C [Everolimus (RAD001)] | 86 | 86 | 76 |  |  | 
7 | C=C1C[C@@H]2[C@H](CC[C@]3(C)C(=O)CC[C@@H]23)[C@@]2(C)C=CC(=O)C=C12 [Exemestane] | 95 | 116 | 87 |  |  | 
8 | O=C1[C@H](CC[C@H](O)c2ccc(F)cc2)[C@@H](c2ccc(O)cc2)N1c1ccc(F)cc1 [Ezetimibe] | 100 | 82 | 80 |  |  | 
9 | Cc1nc(C(=O)NCC(=O)O)c(O)c2ccc(Oc3ccccc3)cc12 [FG-4592] | 136 | 139 | 95 |  |  | 
10 | O=c1[nH]c(=O)n(C2CCCO2)cc1F (stereo not drawn) [FT-207 (NSC 148958)] | 115 | 95 | 73 |  |  | 
11 | CC(=O)OCC(CCn1cnc2cnc(N)nc21)COC(C)=O [Famciclovir] | 107 | 115 | 79 |  |  | 
12 | NC(N)=Nc1nc(CSCCC(N)=NS(N)(=O)=O)cs1 [Famotidine] |  |  |  | 110 | 115 | 86
13 | Cl.O=S(=O)(c1cccc2cnccc12)N1CCCNCC1 [Fasudil (HA-1077) HCl] | 102 | 95 | 82 |  |  | 
14 | Cc1nc(-c2ccc(OCC(C)C)c(C#N)c2)sc1C(=O)O [Febuxostat] | 95 | 85 | 89 |  |  | 
15 | NC(=O)OCC(COC(N)=O)c1ccccc1 [Felbamate] | 103 | 97 | 71 |  |  | 
16 | CCOC(=O)C1=C(C)NC(C)=C(C(=O)OC)C1c1cccc(Cl)c1Cl (stereo not drawn) [Felodipine] | 161 | 227 | 132 |  |  | 
17 | O=C(O)CCC(=O)c1ccc(-c2ccccc2)cc1 [Fenbufen] | 98 | 103 | 90 |  |  | 
18 | CC(C)OC(=O)C(C)(C)Oc1ccc(C(=O)c2ccc(Cl)cc2)cc1 [Fenofibrate] | 88 | 89 | 101 |  |  | 
19 | CC(C)(Oc1ccc(C(=O)c2ccc(Cl)cc2)cc1)C(=O)O [Fenofibric acid] | 104 | 122 | 109 |  |  | 

Row | SMILES | % Phosphatase Activity (compared to DMSO) PRL-1 (recombinant PRL-1; [1]) [%] | % Phosphatase Activity (compared to DMSO) PRL-2 (recombinant PRL-2; [1]) [%] | % Phosphatase Activity (compared to DMSO) PRL-3 (recombinant PRL-3; [1]) [%] | % Phosphatase Activity (compared to DMSO) PRL-1 (recombinant PRL-1) [%] | % Phosphatase Activity (compared to DMSO) PRL-2 (recombinant PRL-2) [%] | % Phosphatase Activity (compared to DMSO) PRL-3 (recombinant PRL-3) [%]
20 | CS(=O)(=O)O.Oc1ccc(C2CNCCc3c2cc(O)c(O)c3Cl)cc1 (stereo not drawn) [Fenoldopam (mesylate)] | 108 | 102 | 96 |  |  | 
21 | CC(C(=O)[O-])c1cccc(Oc2ccccc2)c1.CC(C(=O)[O-])c1cccc(Oc2ccccc2)c1.[Ca+2] (stereo not drawn) [Fenoprofen Calcium] | 82 | 80 | 95 |  |  | 
22 | O=C1NCC2(CCN(CCc3ccccc3)CC2)O1 [Fenspiride HCl] | 90 | 101 | 104 |  |  | 
23 | Clc1ccc(C(Cn2ccnc2)OCc2ccc(Sc3ccccc3)cc2)c(Cl)c1 (stereo not drawn) [Fenticonazole Nitrate] | 107 | 117 | 110 |  |  | 
24 | CC(C)C(=O)Oc1ccc(CO)cc1[C@H](CCN(C(C)C)C(C)C)c1ccccc1 [Fesoterodine Fumarate] | 89 | 100 | 95 |  |  | 
25 | CC(C)(C(=O)O)c1ccc(C(O)CCCN2CCC(C(O)(c3ccccc3)c3ccccc3)CC2)cc1 (stereo not drawn) [Fexofenadine HCl] |  |  |  | 109 | 92 | 89
26 | CCc1c(Cl)c(O)c(Cl)c(O)c1C(=O)O[C@H]1[C@H](O)[C@H](OC)[C@H](OC/C2=C\C=C\C[C@H](O)/C(C)=C/[C@H](CC)[C@@H](O[C@@H]3OC(C)(C)[C@@H](OC(=O)C(C)C)[C@H](O)[C@@H]3O)/C(C)=C/C(C)=C/C[C@@H]([C@@H](C)O)OC2=O)O[C@@H]1C [Fidaxomicin] | 85 | 63 | 62 |  |  | 
27 | O=C(Nc1nc2cccc(-c3ccc(CN4CCS(=O)(=O)CC4)cc3)n2n1)C1CC1 [Filgotinib (GLPG0634)] | 102 | 81 | 92 |  |  | 
28 | CC(C)(C)NC(=O)[C@H]1CC[C@H]2[C@@H]3CC[C@H]4NC(=O)C=C[C@]4(C)[C@H]3CC[C@]12C [Finasteride] | 93 | 87 | 81 |  |  | 
29 | CCCCCCCCc1ccc(CCC(N)(CO)CO)cc1.Cl [Fingolimod (FTY720) HCl] | 104 | 95 | 116 |  |  | 
30 | CN1CC[C@H](c2c(O)cc(O)c3c(=O)cc(-c4ccccc4Cl)oc23)[C@H](O)C1 [Flavopiridol (Alvocidib)] | 92 | 82 | 68 |  |  | 
31 | Cc1c(-c2ccccc2)oc2c(C(=O)OCCN3CCCCC3)cccc2c1=O [Flavoxate HCl] | 103 | 109 | 113 |  |  | 
32 | CS(=O)(=O)c1ccc([C@@H](O)[C@@H](CF)NC(=O)C(Cl)Cl)cc1 [Florfenicol] | 100 | 111 | 75 |  |  | 
33 | O=c1[nH]c(=O)n([C@H]2C[C@H](O)[C@@H](CO)O2)cc1F [Floxuridine] | 93 | 100 | 70 |  |  | 
34 | COC(=O)Nc1nc2cc(C(=O)c3ccc(F)cc3)ccc2[nH]1 [Flubendazole] | 91 | 103 | 92 |  |  | 
35 | Nc1[nH]c(=O)ncc1F [Flucytosine] | 99 | 92 | 74 |  |  | 
36 | Nc1nc(F)nc2c1ncn2[C@@H]1O[C@H](COP(=O)(O)O)[C@@H](O)[C@@H]1O [Fludarabine Phosphate] | 97 | 91 | 70 |  |  | 
37 | Nc1nc(F)nc2c1ncn2[C@@H]1O[C@H](CO)[C@@H](O)[C@@H]1O [Fludarabine] | 110 | 119 | 94 |  |  | 
38 | O=C(O)c1ccccc1Nc1cccc(C(F)(F)F)c1 [Flufenamic acid] | 81 | 85 | 69 |  |  | 
